Measured values taken from patent US20250197671A1, “IRRADIATION-CROSSLINKABLE SILICONE COMPOSITION COMPRISING PT(OCTANE-2,4-DIONE)2 AS A CATALYST” (ELKEM SILICONES FRANCE SAS, priority 2022, published 2025).
Where two headings read alike, the source gives them in different places.

Tests used:
[1] = Photo-DSC of silicone composition (time and value of thermal peak); details: 365 nm, 14.4 mW/cm^2, 10 ppm Pt, N2 purge
[2] = H361-CMR Reproductive Toxicity Category 2; cited from earlier work
[3] = Solubility of the catalyst in hexamethyldisiloxane (HMDSO); format: physicochemical
From the text: Continue additions until obtaining a clear medium, without observing precipitate at the end of stirring.

[4] = Solubility / appearance of catalyst in the silicone composition; details: Photo-DSC formulation, organopolysiloxane A + B, 10 ppm Pt (Example 3)
[5] = Crosslinking time of silicone composition under UV LED irradiation (catalyst activity); details: UV LED 365 nm, 10 ppm Pt, SiH/Si(vinyl)=2:1, bulk setting time
Procedure: Irradiation: UV LED lamp with a wavelength of 365 nm.
The crosslinking time is measured. It corresponds to the bulk setting time of the system (the bar magnet can no longer stir the system).

[6] = tested on: Escherichia coli WP2 (uvrA-) (pKM 101); assay: Ames test (OECD test 471, Bacterial Reverse Mutation Test); format: cell-based; details: with or without metabolic activation; 5000, 1500, 150 and 50 μg/plate
Procedure: (§1) In fact, this compound was analyzed according to the Ames test: the Ames test is a widely used method which uses bacteria for verifying whether a given chemical product may cause DNA mutations in the tested organism.
(§2) Toxicity test (Ames Test, according to the OECD guidelines for chemical product tests-test 471: Bacterial Reverse Mutation Test): Solutions were prepared with Pt(octane-2,4-dione)2.

[7] = tested on: Salmonella typhimurium TA 1535, TA 1537, TA 98, TA 100; assay: as above; format: cell-based; details: with or without metabolic activation; 5000, 1500, 150 and 50 μg/plate
Procedure: as §1, §2

[8] = Stability of the catalysed silicone solution without irradiation; format: physicochemical; details: with organopolysiloxanes A and B, 10 ppm Pt
Procedure: A solution comprising a catalyst C1 or C5, together with organopolysiloxanes A and B was prepared according to example 2 (concentration in metal Pt of 10 ppm).
The stability of the solutions was then determined.

Compound | Time to arrive at the thermal peak [1] | Value of the thermal peak (mW/s) [1] | Appearance [4] | also measured
CC(=O)/C=C(/C)O.CC(=O)/C=C(/C)O.[Pt] [Catalyst C2, Pt(acac)2] | 140 s | 0.65 mW/s | – | reproductive toxicity classification [2]: suspected of damaging fertility or the unborn child
CCC(=O)C=C(CC)[O][Pt][O]C(=CC(=O)CC)CC [Catalyst C3, Pt(heptane-3,5-dione)2] | 240 s | 0.53 mW/s | Clear yellow | Solubility [3]: 2500 ppm Pt
CCC(=O)C=C(C)[O][Pt][O]C(C)=CC(=O)CC [Catalyst C4, Pt(hexane-2,4-dione)2] | 235 s | 0.47 mW/s | Hazy yellow | Solubility ([3]; in hexamethyldisiloxane (HMDSO) at 20° C.): 500 ppm Pt
Pt(octane-2,4-dione)2 [C1 Trans:cis ratio = 11:89] | – | – | – | Crosslinking time [5]: 1 min
Pt(octane-2,4-dione)2 [Catalyst C1] | – | – | – | mutagenic modification (Ames test) [6]: did not induce any mutagenic modification; mutagenic modification (Ames test) [7]: did not induce any mutagenic modification; Solubility [3]: 7000 ppm Pt; time solution remained stable ([8]; exposed to ambient light): over 7 hours; time solution remained stable ([8]; protected from light): over 20 days
cis-Pt(octane-2,4-dione)2 [C1 Cis] | 140 s | 0.85 mW/s | Soluble clear | –
trans Pt(octane-2,4-dione)2 [C1 Trans] | 140 s | 0.78 mW/s | Soluble clear | –
